Assay [1] concerns 786-O cells. The assay is described as follows: in vitro cell viability bioassay measuring cell metabolic activity (CellTiterGlo). It is filed as cell-based, human. As to conditions: for IC20: ED20 (or lower, based on clinically attainable plasma concentrations), highest dose for combinatorial screening; for EC50: 786-0, dose that inhibited 50% of cell viability vs control, 72 h treatment, read-out: ED50 (the source's name). Here is the method: Seeding density was 2-10×10^3cells/well, depending on the cell line's growth characteristics such that the control cells approach confluency at the time of the assay readout. Subsequently, cell viability was assessed using the CellTiterGlo® luminescence assay (Promega, Madison, Wis., USA) and cell viability was reported as the luminescence signal in the treated wells normalized to the signal in the DMSO treated control wells. Dose-response curves and IC50 values were determined in Graphpad Prism® using a four-parameter non-linear fit of the log transformed dose data of each compound.
(In general: In ATP-based viability assays light output follows the ATP content of the culture.)

Assay [2] deals with 786-O cells. Description: mitosis live cell imaging (SiR-tubulin). Type of assay: cell-based, human. As to conditions: single drug alone. Here is the method: In order to test whether C2 treatment affects cell division, this process was monitored by live cell imaging. 786-O cells were treated with 0.1% DMSO in the cell culture medium (CTRL) or C2 and stained with the live cell dye SiR-tubulin (microtubule marker) to label the mitotic spindle, monitor mitotic progression and detect any cytokinesis failure. All experiments were performed in the presence of Valspodar (4 μM), a multi-drug pump inhibitor that prevented SiR-tubulin removal from the cell (this concentration of Valspodar had no effect on the efficacy of C2). Live cells were recorded for 24 hours at a temporal resolution of 3 minutes (FIG. 7A).
20 points were taken per condition.

Another assay relates to COLO-205 cells. Description: cell metabolic activity assay (CellTitre-Glo), CRC line. It is filed as cell-based. As to conditions: COLO-205, CIN and high centrosome numbers. The method, then:
C2 and the individual drugs present in C2 were assayed in a cell metabolic activity assay (CellTitre-Glo) where the bioluminescence was detected, to the following cell panel: two MIN (microsatellite instability) cell lines (HCT-116 and DLD1), two CIN (chromosomal instability) cell lines (SW480 and SW620), COLO205 (CIN and high centrosome numbers), HT29 (CIN and replication stress induced centriole dis-engagement), CCD841 (non-malignant colon cell line; negative control) and 786-O (renal carcinoma cell line; positive control).

The values that follow come from patent publication US20220373535A1, “METHODS OF IDENTIFICATION OF SYNERGISTIC ANTI-CANCER MULTIDRUG COMBINATIONS AND USES THEREOF” (UNIVERSITE DE GENEVE, priority 2019, published 2022).

In general, IC20 refers to the point of the concentration-response curve where the effect stands at 20%. Regarding `C#Cc1cccc(Nc2ncnc3cc(OCCOC)c(OCCOC)cc23)c1` [erlotinib, N-(3-Ethynylphenyl)-6,7-bis(2-methoxyethoxy) quinazolin-4-amine], in the assay on 786-O cells [1] (Homo sapiens, 786-0, 72 h), the IC20 turned out to be 2000 nM. Moreover, the EC50 in the assay with 786-O cells [1] (Homo sapiens) was 6600 nM. For the same compound, the “effect on mitosis duration” value in the assay with 786-O cells [2] was “small delay in mitosis”.

For `CC(=O)Nc1ccc(C(=O)Nc2ccccc2N)cc1` [CI-994, 4-(Acetylamino)-N-(2-aminophenyl)benzamide], in the assay with 786-O cells [1] (Homo sapiens, 786-0, 72 h), the IC20 was found to be 1000 nM. In addition, in the assay on 786-O cells [1] (Homo sapiens), the EC50 worked out at 11500 nM.

Consider `CNC(=O)c1cc(Oc2ccc(NC(=O)Nc3ccc(Cl)c(C(F)(F)F)c3)cc2)ccn1` [sorafenib], for which the IC20 with 786-O cells [1] (Homo sapiens, 786-0, 72 h) is 10 nM.

Turning to `O=C(CCCCCCC(=O)Nc1ccccc1)NO` [SAHA], the IC20 in the assay with 786-O cells [1] was 1000 nM.

As for `CNC(=O)c1ccccc1Sc1ccc2c(/C=C/c3ccccn3)n[nH]c2c1` [axitinib], the IC20 in the assay on 786-O cells [1] (Homo sapiens, 786-0, 72 h) amounted to 200 nM.

In the case of `Cc1nc(Nc2ncc(C(=O)Nc3c(C)cccc3Cl)s2)cc(N2CCN(CCO)CC2)n1` [dasatinib, N-(2-chloro-6-methylphenyl)-2-[[6-[4-(2-hydroxyethyl)piperazin-1-yl]-2-methylpyrimidin-4-yl]amino]-1,3-thiazole-5-carboxamide], the IC20 in the assay on 786-O cells [1] (Homo sapiens, 786-0, 72 h) is 50 nM. For the same compound, the EC50 in the assay on 786-O cells [1] (Homo sapiens) came to 100 nM.

As to `O=C(CCCCCCC(=O)Nc1ccc([C@H]2O[C@@H](CSc3nc(-c4ccccc4)c(-c4ccccc4)o3)C[C@@H](c3ccc(CO)cc3)O2)cc1)NO` [tubacin, N-(4-{(2R,4R,6S)-4-{[(4,5-diphenyl-1,3-oxazol-2-yl)sulfanyl]methyl}is [4-(hydroxymethyl)phenyl]-1,3-dioxan-2-yl}phenyl)-N′-hydroxyoctanediamide], the “killing / toxicity (cell metabolic activity)” value with COLO-205 cells was “partial toxicity”. For the same compound, in the assay on 786-O cells [1] (Homo sapiens, 786-0, 72 h), the IC20 was 2000 nM. For the same compound, the EC50 in the assay on 786-O cells [1] (Homo sapiens) was determined as 6000 nM. Besides, in the assay with 786-O cells [2], the “effect on mitosis duration” value is reported as “small delay in mitosis”.

On to `Cc1[nH]c2ccccc2c1CCNCc1ccc(/C=C/C(=O)NO)cc1` [LBH-589], for which the IC20 with 786-O cells [1] (Homo sapiens, 786-0, 72 h) turned out to be 2 nM. In addition, the EC50 in the assay with 786-O cells [1] (Homo sapiens) amounted to 10 nM.

With `Cn1c(=O)n(-c2ccc(C(C)(C)C#N)cc2)c2c3cc(-c4cnc5ccccc5c4)ccc3ncc21` [BEZ-235], the IC20 in the assay on 786-O cells [1] (Homo sapiens, 786-0, 72 h) came to 20 nM. Moreover, the EC50 in the assay with 786-O cells [1] (Homo sapiens) is 90 nM.

For the compound `Cc1cc(Nc2cc(N3CCN(C)CC3)nc(Sc3ccc(NC(=O)C4CC4)cc3)n2)[nH]n1` [VX-680], the IC20 with 786-O cells [1] (Homo sapiens, 786-0, 72 h) stood at 650 nM. For the same compound, the EC50 in the assay with 786-O cells [1] (Homo sapiens) amounted to 33000 nM.
